Measured values reported in EPA's ToxValDB 9.5 (doi:10.2903/j.efsa.2013.3373).
“And” between values parts separate entries of the source, which are not always exact repeats. Equal values may be shown once.

Key:
Canidae = details: subchronic; duration: 3 months; oral; gavage; Dog Other; organ weight
Bibionidae = details: chronic/long-term; duration: 28 days; development
Oncorhynchus mykiss = details: mortality
Colinus virginianus = details: for LD50: acute, oral, mortality
Rattus norvegicus = details: for NOAEL: reproduction developmental
Mus musculus = details: acute, oral, mortality
Apis mellifera = details: acute, duration: 96 hours, mortality
Cyprinodon variegatus = details: chronic/long-term; duration: 41 days; mortality
Daphnia magna = details: chronic/long-term; duration: 21 days; reproduction
Danio rerio = details: chronic; duration: 148 days
Chironomus tentans = details: acute; duration: 10 days; mortality
Neomysis kadiakensis = details: chronic/long-term; duration: 28 days; reproduction

For N#Cc1ccc(CC(=NNC(=O)Nc2ccc(OC(F)(F)F)cc2)c2cccc(C(F)(F)F)c2)cc1 (mixture of isomers) [Metaflumizone], the NOAEL (Canidae) was 6 mg/kg-day, the NOEC (Bibionidae) was 2.56 µg/L and the LC50 (Oncorhynchus mykiss; acute, duration: 96 hours) was greater than 0.228 µg/mL. The NOEC (Oncorhynchus mykiss; chronic/long-term, duration: 93 days) was 1.47 µg/L, the LD50 (Colinus virginianus; diet) was 306 mg/kg-day and the LD50 (Colinus virginianus) was greater than 2020 mg/kg-day. The NOEL (Colinus virginianus; reproduction developmental, reproduction) was 0.53 mg/kg-day, the LD50 (Rattus norvegicus; acute, oral, mortality) was greater than 5000 mg/kg-day and the NOAEL (Rattus norvegicus; body weight) was 40 mg/kg-day. For the same compound, the NOAEL (Rattus norvegicus; reproduction) was 20 mg/kg-day, the LC50 (Tagia sp.; acute, duration: 14 days, mortality) was greater than 1000 mg/kg and the NOEC (Tagia sp.; chronic/long-term) was 6.92 mg/kg. It also gave an LD50 (Mus musculus; duration: 7 days, diet) of 101 mg/kg-day, an LD50 (Mus musculus) greater than 5000 mg/kg-day and an LD50 (Apis mellifera; dermal) of 1.65 µg/piece. The LD50 (Apis mellifera; oral, unspecified) was 2.43 µg/piece, the NOEC (Cyprinodon variegatus) was 1.15 µg/L and the NOEC (Daphnia magna) was 1.47 µg/L. For the same compound, the NOEC (Danio rerio) was 0.015 mg/L, the LD50 (Anas platyrhynchos; acute, oral, unspecified, mortality) was greater than 2020 mg/kg-day and the NOEL (Anas platyrhynchos; reproductive, reproduction) was < 4.4 mg/kg-day and 1.8 mg/kg-day. For the same compound, the LC50 (Chironomus tentans) was 1800 µg/kg and the NOEC (Neomysis kadiakensis) was 0.654 µg/L.
